Legend:
[1] = tested on: hnRNP L; experiment: Western Blot analysis of hnRNP L in cultured rat primary cortical neurons; type: cell-based
From the text: Compounds that modify hnRNP L levels are useful for the development of ASD/mental retardation/neurological disorders.

[2] = tested on: hnRNP L; conditions: cited from earlier work
[3] = tested on: BIN1; conditions: human osteosarcoma cells (U2OS), proteome analysis; cited from earlier work
[4] = tested on: vascular endothelial growth factor (VEGF); conditions: Jeong et al. 2011; cited from earlier work
[5] = tested on: glucose transporter 1 (GLUT-1); conditions: Jeong et al. 2011; cited from earlier work
[6] = after IP or oral administration; cited from earlier work
[7] = clinical trials (U.S. Pat. No. 3,995,061); cited from earlier work
[8] = human osteosarcoma cells (U2OS), proteome analysis

CC(/C=C/[C@@]1(C)[C@H](C)CCC(=O)[C@@H]1C)=C\Cc1c(O)c(Cl)c(C)c(C=O)c1O [ascochlorin]
levels of hnRNP L [1]: increased levels of hnRNP L
increase in hnRNP L levels [2, 8]: 12 x
increase in the levels of three proteins, including hnRNP L and BIN1 [2, 8]: ≥ 10 fold
hnRNP L protein levels in vitro ([2]; in vitro (Kang et al. 2006)): increase hnRNP L protein levels
increase in BIN1 levels [3]: 10 x

COc1c(Cl)c(C)c(C=O)c(O)c1C/C=C(C)/C=C/[C@@]1(C)[C@H](C)CCC(=O)[C@@H]1C [MAC, 4-O-methylascochlorin]
expression of VEGF [4]: increases the expression
expression of GLUT-1 [5]: increases the expression
toxicity as assessed by LD50 [6]: low toxicity
tolerability in clinical trials [7]: well tolerated

CCOc1c(Cl)c(C)c(C=O)c(O)c1C/C=C(C)/C=C/C1(C)C(C)CCC(=O)C1C (stereo not shown) [4-O-ethyl-ascochlorin, 4-O-ethylascochlorin]
toxicity as assessed by LD50 [6]: low toxicity

From patent publication US20210228531A1, “TARGETED TREATMENT OF AUTISM SPECTRUM DISORDER AND OTHER NEUROLOGICAL OR PSYCHIATRIC DISORDERS” (Tufts Medical Center, Inc., priority 2018, published 2021)
